# According to ChEMBL document CHEMBL4396916, “Novel potent substituted 4-amino-2-thiopyrimidines as dual VEGFR-2 and BRAF kinase inhibitors” (Eur J Med Chem, 2019):
# Legend:
# [1] = target: Vascular endothelial growth factor receptor 2 (Homo sapiens, UniProt P35968); assay: Inhibition of human N-terminal GST tagged VEGFR-2 expressed in baculovirus infected Sf9 cells using poly (Glu,Tyr) 4:1 as substrate in presence of ATP by Kinase-Glo luminescence assay
# MCF7 [2] = assay: Cytotoxicity against human MCF7 cells expressing VEGFR2 and wild type BRAF measured after 48 hrs by sulforhodamine B assay; type: functional, cell-based; conditions: MCF7, 48 h
# MCF7 [3] = assay: Inhibition of VEGFR2 level in human MCF7 cells at 10 uM measured after 48 hrs by ELISA relative to control; type: functional; conditions: MCF7, 48 h
# [4] = target: Serine/threonine-protein kinase B-raf (Homo sapiens, UniProt P15056); assay: Inhibition of human wild type BRAF by Kinase-Glo luminescence assay
# CCRF-CEM = assay: Growth inhibition of human CCRF-CEM cells at 10 uM incubated for 48 hrs by sulforhodamine B assay relative to control; type: functional; conditions: read-out: GI
# K562 = assay: Growth inhibition of human K562 cells at 10 uM incubated for 48 hrs by sulforhodamine B assay relative to control; type: functional; conditions: K562, 48 h, read-out: GI
# MOLT-4 = assay: Growth inhibition of human MOLT4 cells at 10 uM incubated for 48 hrs by sulforhodamine B assay relative to control; type: functional; conditions: MOLT-4, 48 h, read-out: GI
# RPMI-8226 = assay: Growth inhibition of human RPMI8226 cells at 10 uM incubated for 48 hrs by sulforhodamine B assay relative to control; type: functional; conditions: RPMI-8226, 48 h, read-out: GI
# A549 = assay: Growth inhibition of human A549/ATCC cells at 10 uM incubated for 48 hrs by sulforhodamine B assay relative to control; type: functional; conditions: A549, 48 h, read-out: GI
# EKVX = assay: Growth inhibition of human EKVX cells at 10 uM incubated for 48 hrs by sulforhodamine B assay relative to control; type: functional; conditions: read-out: GI
# HOP-62 = assay: Growth inhibition of human HOP62 cells at 10 uM incubated for 48 hrs by sulforhodamine B assay relative to control; type: functional; conditions: HOP-62, 48 h, read-out: GI
# NCI-H226 = assay: Growth inhibition of human NCI-H226 cells at 10 uM incubated for 48 hrs by sulforhodamine B assay relative to control; type: functional; conditions: NCI-H226, 48 h, read-out: GI
# NCI-H23 = assay: Growth inhibition of human NCI-H23 cells at 10 uM incubated for 48 hrs by sulforhodamine B assay relative to control; type: functional; conditions: NCI-H23, 48 h, read-out: GI
# NCI-H522 = assay: Growth inhibition of human NCI-H522 cells at 10 uM incubated for 48 hrs by sulforhodamine B assay relative to control; type: functional; conditions: NCI-H522, 48 h, read-out: GI
# HCT-15 = assay: Growth inhibition of human HCT15 cells at 10 uM incubated for 48 hrs by sulforhodamine B assay relative to control; type: functional; conditions: HCT-15, 48 h, read-out: GI
# KM12 = assay: Growth inhibition of human KM12 cells at 10 uM incubated for 48 hrs by sulforhodamine B assay relative to control; type: functional; conditions: KM12, 48 h, read-out: GI
# SF-295 = assay: Growth inhibition of human SF295 cells at 10 uM incubated for 48 hrs by sulforhodamine B assay relative to control; type: functional; conditions: SF-295, 48 h, read-out: GI
# SK-MEL-5 = assay: Growth inhibition of human SK-MEL-5 cells at 10 uM incubated for 48 hrs by sulforhodamine B assay relative to control; type: functional; conditions: SK-MEL-5, 48 h, read-out: GI
# UACC-62 = assay: Growth inhibition of human UACC62 cells at 10 uM incubated for 48 hrs by sulforhodamine B assay relative to control; type: functional; conditions: UACC-62, 48 h, read-out: GI
# OVCAR-4 = assay: Growth inhibition of human OVCAR4 cells at 10 uM incubated for 48 hrs by sulforhodamine B assay relative to control; type: functional; conditions: OVCAR-4, 48 h, read-out: GI
# OVCAR-8 = assay: Growth inhibition of human OVCAR8 cells at 10 uM incubated for 48 hrs by sulforhodamine B assay relative to control; type: functional; conditions: OVCAR-8, 48 h, read-out: GI
# NCI/ADR-RES = assay: Growth inhibition of human NCI/ADR-RES cells at 10 uM incubated for 48 hrs by sulforhodamine B assay relative to control; type: functional; conditions: read-out: GI
# A498 = assay: Growth inhibition of human A498 cells at 10 uM incubated for 48 hrs by sulforhodamine B assay relative to control; type: functional; conditions: A498, 48 h, read-out: GI
# ACHN = assay: Growth inhibition of human ACHN cells at 10 uM incubated for 48 hrs by sulforhodamine B assay relative to control; type: functional; conditions: read-out: GI
# CAKI-1 = assay: Growth inhibition of human Caki1 cells at 10 uM incubated for 48 hrs by sulforhodamine B assay relative to control; type: functional; conditions: CAKI-1, 48 h, read-out: GI
# UO-31 = assay: Growth inhibition of human UO31 cells at 10 uM incubated for 48 hrs by sulforhodamine B assay relative to control; type: functional; conditions: UO-31, 48 h, read-out: GI
# PC-3 = assay: Growth inhibition of human PC3 cells at 10 uM incubated for 48 hrs by sulforhodamine B assay relative to control; type: functional; conditions: PC-3, 48 h, read-out: GI
# MCF7 [5] = assay: Growth inhibition of human MCF7 cells at 10 uM incubated for 48 hrs by sulforhodamine B assay relative to control; type: functional; conditions: MCF7, 48 h, read-out: GI
# T47D [6] = assay: Growth inhibition of human T47D cells at 10 uM incubated for 48 hrs by sulforhodamine B assay relative to control; type: functional; conditions: read-out: GI
# MDA-MB-468 = assay: Growth inhibition of human MDA-MB-468 cells at 10 uM incubated for 48 hrs by sulforhodamine B assay relative to control; type: functional; conditions: MDA-MB-468, 48 h, read-out: GI
# T47D [7] = assay: Cytotoxicity against human T47D cells expressing wild type BRAF measured after 48 hrs by sulforhodamine B assay; type: functional, cell-based
# Chain of Vascular endothelial growth factor receptor 2 (P35968 whole entry): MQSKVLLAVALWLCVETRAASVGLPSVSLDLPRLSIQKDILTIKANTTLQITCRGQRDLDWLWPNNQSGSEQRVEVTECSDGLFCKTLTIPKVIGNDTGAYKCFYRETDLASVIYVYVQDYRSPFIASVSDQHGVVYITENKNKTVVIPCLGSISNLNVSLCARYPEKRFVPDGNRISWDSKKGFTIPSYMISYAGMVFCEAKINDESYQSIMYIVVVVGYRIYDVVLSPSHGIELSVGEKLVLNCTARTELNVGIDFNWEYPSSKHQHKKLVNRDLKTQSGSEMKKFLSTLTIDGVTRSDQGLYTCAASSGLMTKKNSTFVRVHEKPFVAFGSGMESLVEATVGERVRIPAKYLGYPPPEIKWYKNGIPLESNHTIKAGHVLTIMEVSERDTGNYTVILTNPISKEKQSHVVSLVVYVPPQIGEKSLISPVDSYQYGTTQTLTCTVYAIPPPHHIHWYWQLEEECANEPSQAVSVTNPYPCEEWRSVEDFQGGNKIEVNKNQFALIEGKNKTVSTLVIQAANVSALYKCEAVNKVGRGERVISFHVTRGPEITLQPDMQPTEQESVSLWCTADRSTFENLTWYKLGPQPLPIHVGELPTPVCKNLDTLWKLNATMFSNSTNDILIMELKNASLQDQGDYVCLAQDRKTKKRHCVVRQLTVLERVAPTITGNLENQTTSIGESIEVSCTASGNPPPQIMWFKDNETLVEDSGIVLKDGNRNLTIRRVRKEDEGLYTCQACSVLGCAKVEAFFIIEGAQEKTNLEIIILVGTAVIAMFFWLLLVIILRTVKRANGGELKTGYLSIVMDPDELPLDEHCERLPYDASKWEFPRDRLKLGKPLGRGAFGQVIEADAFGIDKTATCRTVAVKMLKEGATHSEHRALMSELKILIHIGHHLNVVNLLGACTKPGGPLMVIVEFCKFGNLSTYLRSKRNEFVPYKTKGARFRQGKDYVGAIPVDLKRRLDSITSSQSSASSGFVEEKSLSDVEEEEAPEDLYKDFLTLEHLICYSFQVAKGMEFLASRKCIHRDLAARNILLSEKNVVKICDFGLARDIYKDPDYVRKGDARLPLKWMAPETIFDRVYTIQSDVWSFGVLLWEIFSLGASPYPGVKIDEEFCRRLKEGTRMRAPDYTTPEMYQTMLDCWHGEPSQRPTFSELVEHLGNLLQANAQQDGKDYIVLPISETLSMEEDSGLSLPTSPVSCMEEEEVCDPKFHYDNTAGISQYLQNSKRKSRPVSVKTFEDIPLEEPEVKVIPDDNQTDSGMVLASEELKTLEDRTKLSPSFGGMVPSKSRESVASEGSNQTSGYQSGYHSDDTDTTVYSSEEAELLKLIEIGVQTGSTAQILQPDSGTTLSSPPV
# Chain of Serine/threonine-protein kinase B-raf (P15056 whole entry): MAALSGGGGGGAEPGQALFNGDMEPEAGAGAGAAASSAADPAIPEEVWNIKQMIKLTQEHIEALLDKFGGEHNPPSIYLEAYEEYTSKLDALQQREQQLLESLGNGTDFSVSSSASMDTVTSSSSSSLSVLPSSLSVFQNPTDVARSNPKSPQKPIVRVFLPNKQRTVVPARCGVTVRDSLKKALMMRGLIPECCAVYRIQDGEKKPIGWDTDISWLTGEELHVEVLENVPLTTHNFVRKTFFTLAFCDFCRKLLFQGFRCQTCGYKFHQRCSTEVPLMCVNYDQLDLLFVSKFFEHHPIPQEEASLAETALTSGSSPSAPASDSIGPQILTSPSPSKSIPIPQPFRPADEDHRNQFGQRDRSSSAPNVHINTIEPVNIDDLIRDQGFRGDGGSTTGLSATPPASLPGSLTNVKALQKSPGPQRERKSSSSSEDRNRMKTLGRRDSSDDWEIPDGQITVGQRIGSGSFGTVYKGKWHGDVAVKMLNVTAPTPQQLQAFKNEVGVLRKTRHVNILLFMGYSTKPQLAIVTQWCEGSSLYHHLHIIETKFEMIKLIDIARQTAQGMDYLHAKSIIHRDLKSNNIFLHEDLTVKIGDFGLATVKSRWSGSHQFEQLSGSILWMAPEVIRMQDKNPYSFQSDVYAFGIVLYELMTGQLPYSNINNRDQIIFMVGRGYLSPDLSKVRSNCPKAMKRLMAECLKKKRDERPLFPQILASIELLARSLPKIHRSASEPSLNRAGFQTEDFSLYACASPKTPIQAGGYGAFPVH
smiles,measurement,setting,value
COc1ccc(C(=O)CSc2nccc(Nc3ccc(C(=O)O)cc3)n2)cc1,IC50,[1],1.43 µM
same,IC50,MCF7 [2],37.8 µM
same,inhibition at 10 µM,MCF7 [3],40%
O=C(O)c1ccc(Nc2ccnc(SCC(=O)c3ccc(-c4ccccc4)cc3)n2)cc1,IC50,[1],0.57 µM
same,IC50,MCF7 [2],49 µM
O=C(O)c1ccc(Nc2ccnc(SCC(=O)c3ccc(Br)cc3)n2)cc1,IC50,[1],> 10 µM
same,IC50,MCF7 [2],81.2 µM
O=C(O)c1ccc(Nc2ccnc(SCC(=O)c3ccc([N+](=O)[O-])cc3)n2)cc1,IC50,[1],> 10 µM
same,IC50,MCF7 [2],53.2 µM
CCOC(=O)c1ccc(Nc2ccnc(SCC(=O)c3ccc(Cl)cc3)n2)cc1,IC50,[1],> 10 µM
same,IC50,MCF7 [2],20 µM
CC(=O)c1ccc(Nc2ccnc(SCC(=O)c3ccc(Cl)cc3)n2)cc1,IC50,[1],0.22 µM
same,IC50,[4],0.64 µM
same,inhibition of growth at 10 µM,CCRF-CEM,29%
same,inhibition of growth at 10 µM,K562,19%
same,inhibition of growth at 10 µM,MOLT-4,33%
same,inhibition of growth at 10 µM,RPMI-8226,46%
same,inhibition of growth at 10 µM,A549,20%
same,inhibition of growth at 10 µM,EKVX,10%
same,inhibition of growth at 10 µM,HOP-62,14%
same,inhibition of growth at 10 µM,NCI-H226,21%
same,inhibition of growth at 10 µM,NCI-H23,13%
same,inhibition of growth at 10 µM,NCI-H522,29%
same,inhibition of growth at 10 µM,HCT-15,14%
same,inhibition of growth at 10 µM,KM12,11%
same,inhibition of growth at 10 µM,SF-295,14%
same,inhibition of growth at 10 µM,SK-MEL-5,65%
same,inhibition of growth at 10 µM,UACC-62,34%
same,inhibition of growth at 10 µM,OVCAR-4,18%
same,inhibition of growth at 10 µM,OVCAR-8,29%
same,inhibition of growth at 10 µM,NCI/ADR-RES,46%
same,inhibition of growth at 10 µM,A498,19%
same,inhibition of growth at 10 µM,ACHN,11%
same,inhibition of growth at 10 µM,CAKI-1,21%
same,inhibition of growth at 10 µM,UO-31,33%
same,inhibition of growth at 10 µM,PC-3,30%
same,inhibition of growth at 10 µM,MCF7 [5],19%
same,inhibition of growth at 10 µM,T47D [6],71%
same,inhibition of growth at 10 µM,MDA-MB-468,27%
same,IC50,MCF7 [2],55.2 µM
same,IC50,T47D [7],14.5 µM
COc1ccc(C(=O)CSc2nccc(Nc3ccc(C(C)=O)cc3)n2)cc1,IC50,[1],0.49 µM
same,IC50,MCF7 [2],80.3 µM
CCOC(=O)c1ccc(Nc2ccnc(SCC(=O)c3ccc(-c4ccccc4)cc3)n2)cc1,IC50,[1],0.34 µM
same,IC50,MCF7 [2],68.5 µM
